From paper PMC7756582, “Prodrugs of γ‐Alkyl‐Modified Nucleoside Triphosphates: Improved Inhibition of HIV Reverse Transcriptase” (Angewandte Chemie (International Ed. in English), 2020)
Where two headings read alike, the source gives them in different places.

Columns and labels:
human DNA polymerase β = biological target: T1, human DNA polymerase β (Homo sapiens, UniProt P06746); test: Primer extension assay with human DNA polymerase β; assay type: biochemical; conditions: single triphosphate, 66 μM, Pol β 6 U, 60 min
T1 construct: purchased Roboklon
Protocol: Two different set‐ups have been used. First, a mixture of dATP, dCTP, dGTP, and γ‐alkyl‐TTP (N*) or ‐d4TTP (T*) was used as a mixture. The results obtained from these experiments were compared to those in which just γ‐alkyl‐TTP (N) or d4TTP (T) was used. In each experiment a primer extension without added polymerase (negative control, ‐ lane) and an experiment in which all four canonical NTPs were added (positive control, +lane) were used as controls.
Figure 4 Primer extension assay using DNA polymerase β and the γ‐alkyl‐dNTP 7 and 15. Lane 1 (−): dATP, dGTP, dCTP and TTP without human DNA polymerase β; lane 2 (+): dATP, dGTP, dCTP, and TTP with human Pol β; lane 3 (N, C4‐T): γ‐C4‐TTP 15 w; lane 4 (N, C18‐T): γ‐C18‐TTP 15 z; lane 5 (T, C4‐d4T): γ‐C4‐d4TTP 7 w; lane 6 (T, C11‐d4T): γ‐C11‐d4TTP 7 x; lane 7 (T, C18‐d4T): γ‐C18‐d4TTP 7 z; lane 8 (d4TTP): d4TTP. […]
(§1) Anti-HIV activity assay: Inhibition of HIV-1(IIIB)- and HIV-2(ROD)-induced cytopathicity in wild-type CEM/0 and thymidine kinase-deficient CEM/TK- cell cultures was measured in microtiter 96-well plates containing ~3·105 CEM cells/mL infected with 100 CCID50 of HIV per milliliter and containing appropriate dilutions of the test compounds. […]
2) For HIV- RT assay: The final assay solution (10 µL) consists of 50 mM Tris-HCl (pH 8.6 at 22 °C), 10 mM MgCl2, 40mM KCl, dNTPs 66 µM, HIV RT 6 U, Hybrid 0.32 µM in a reaction volume of 10 µL, incubated 37 °C for 15 min, 80 °C for 3 min; 50 mA, 45w for 4 h. […] The result was visualized by fluorescence imaging.
3) For human DNA pol β assay: The final assay solution (10 µL) consists of 50 mM Tris-HCl (pH 8.7), 10 mM MgCl2, 100mM KCl, 1.0 mM dithiothreitol, 0.4 mg/ml of bovine serum albumin, 15% glycerol, dNTPs 66 µM, DNA Polymerase Beta 6 U, Hybrid 0.32 µM in a reaction volume of 10 µL, incubated 37 °C for 60 min, 80 °C for 3 min; 50 mA, 45w for 4 h. […] The result was visualized by fluorescence imaging. […]

HIV-2(ROD) [1] = test: Anti-HIV activity assay, HIV-2-infected thymidine-kinase-deficient CEM/TK- cell cultures; assay type: cell-based; conditions: for EC50: mean±SD, n=2-3
Protocol: (§2) γ‐(AB,alkyl)‐d4TTP prodrugs 6 and the γ‐alkyl‐d4TTPs 7 were evaluated for their ability to inhibit the replication of HIV in HIV‐1‐ or HIV‐2‐infected wild‐type CEM/0 as well as mutant thymidine‐kinase‐deficient CEM cell cultures (CEM/TK^−). For comparison, two TriPPPro derivatives 5 were also included in this assay.
as §1, with “compounds. After 4−5 days of incubation at 37 °C in a CO2-controlled humidified atmosphere, CEM giant (syncytium) cell formation was examined microscopically.” for “compounds.”
(§3) was defined as the compound concentration required to inhibit HIV-induced giant cell formation by 50%. […]
(§4) The result was visualized by fluorescence imaging. […]
as §4

HIV-2(ROD) [2] = test: Anti-HIV activity assay, HIV-2-infected wild-type CEM/0 cell cultures; assay type: cell-based; conditions: Human immunodeficiency virus 2, CCRF-CEM, read-out: EC50 CEM/0 HIV-2
Protocol: as §2
as §1, with “compounds. After 4−5 days of incubation at 37 °C in a CO2-controlled humidified atmosphere, CEM giant (syncytium) cell formation was examined microscopically.” for “compounds.”
as §3, §4, §4

HIV-1(IIIB) = test: Anti-HIV activity assay, HIV-1-infected wild-type CEM/0 cell cultures; assay type: cell-based; conditions: Human immunodeficiency virus 1, IIIB, CCRF-CEM, read-out: EC50 CEM/0 HIV-1
Protocol: as §2
as §1, with “compounds. After 4−5 days of incubation at 37 °C in a CO2-controlled humidified atmosphere, CEM giant (syncytium) cell formation was examined microscopically.” for “compounds.”
as §3, §4, §4

[3] = Cytotoxicity: inhibition of CD4+ T-cell (CEM) proliferation; assay type: cell-based; conditions: human, CEM/0 cells (CD4+ T-cells), 50 % cytostatic concentration, mean±SD, n=2-3
[4] = Human immunodeficiency virus 2, CEM-TK(-), read-out: EC50 CEM/TK− HIV-2, thymidine-kinase-deficient CEM/TK− cells, HIV-2
[5] = read-out: EC50 CEM/TK− HIV-2, thymidine-kinase-deficient CEM/TK− cells, HIV-2
[6] = Human immunodeficiency virus 2, thymidine-kinase-deficient CEM/TK− cells, HIV-2, read-out: EC50 CEM/TK− HIV-2
[7] = wild-type CEM/0 cells, HIV-2, mean±SD, n=2-3
[8] = wild-type CEM/0 cells, HIV-1, mean±SD, n=2-3

EC50 (HIV-2(ROD) [1]; [6])	EC50 (HIV-2(ROD) [2]; [7])	EC50 (HIV-1(IIIB); [8])	Structure (SMILES)	primer extension by DNA polymerase β (substrate properties) (human DNA polymerase β)	antiviral activity improved versus TriPPPro intermediates comprising a C17 aliphatic chain (HIV-2(ROD) [1]; HIV-2-infected CEM/TK− cells)	antiviral activity in CEM/TK− cell cultures (in words) (HIV-2(ROD) [1]; HIV-2-infected CEM/TK− cells)	more active than d4T (HIV-2(ROD) [1]; HIV-2-infected CEM/TK− cells)	EC50 (HIV-2(ROD) [1]; [4])	EC50 (HIV-2(ROD) [1]; [5])	EC50 (HIV-2(ROD) [2])	EC50 (HIV-1(IIIB))	CC50 [3]
			CCCCCCCCCCCCCCCCCCOP(=O)(O)OP(=O)(O)OP(=O)(O)OCC1C=CC(n2cc(C)c(=O)[nH]c2=O)O1 (stereo not shown) [7 z, γ‐C18‐d4TTP]	no incorporation was detected	30 fold	highly potent	2700 fold	55 nM	50 ± 27 nM	110 ± 84 nM	110 ± 42 nM	86000 ± 3000 nM
			CCCCOP(=O)(O)OP(=O)(O)OP(=O)(O)OCC1C=CC(n2cc(C)c(=O)[nH]c2=O)O1 (stereo not shown) [7 w, γ‐C4‐d4TTP]	good substrate		almost inactive		35000 nM	36000 ± 29000 nM	290 ± 150 nM	950 ± 510 nM	> 100000 nM
170 nM	160 ± 100 nM	180 ± 90 nM	CCCCCCCCCCCCCCCCCCOP(=O)(OCc1ccc(OC(=O)CCCC)cc1)OP(=O)(O)OP(=O)(O)OCC1C=CC(n2cc(C)c(=O)[nH]c2=O)O1 (stereo not shown) [6 cz, γ‐(AB‐C4,alkyl‐C18)‐d4TTP]									13000 ± 1000 nM
			Cc1cn(C2C=CC(COP(=O)(O)OP(=O)(O)OP(=O)(O)O)O2)c(=O)[nH]c1=O (stereo not shown) [2 t, d4TTP, reference compound]	efficiently incorporated		inactive		> 100000 nM		400 ± 260 nM	1050 ± 350 nM	> 100000 nM
> 10000 nM	240 ± 10 nM	330 ± 110 nM	CCCCCCCCCCCCCCCC(=O)Oc1ccc(COP(=O)(OCCCC)OP(=O)(O)OP(=O)(O)OCC2C=CC(n3cc(C)c(=O)[nH]c3=O)O2)cc1 (stereo not shown) [6 ew, γ‐(AB‐C15,alkyl‐C4)‐d4TTP]			inactive						21000 ± 2000 nM
